Data from ChEMBL document CHEMBL5375952, “Discovery of Novel 8-Hydroxyquinoline Derivatives with Potent In Vitro and In Vivo Antifungal Activity” (J Med Chem, 2023).
In brackets after ≈: the same amount, converted by molar mass. Activity calls are given as the source filed them. No cut-off for these calls is given here.

How the values were obtained:
Candida albicans [1] = assay: Synergistic antifungal activity against FLC-resistant Candida albicans 64548 assessed as MIC of FLC incubated for 48 hrs by broth microdilution method; type: functional
Nakaseomyces glabratus = assay: Antifungal activity against Candida glabrata 203 assessed as fungal growth inhibition incubated for 48 hrs by broth microdilution method; type: functional
Candida albicans [2] = assay: Antifungal activity against Candida albicans SC5314 assessed as fungal growth inhibition incubated for 48 hrs in presence of K+ by broth microdilution method; type: functional, organism-based
Candida parapsilosis [3] = assay: Antifungal activity against Candida parapsilosis 105 assessed as fungal growth inhibition incubated for 48 hrs by broth microdilution method; type: functional; settings: Lodderomyces parapsilosis
Candida albicans [4] = assay: Antifungal activity against FLC-resistant Candida albicans 12 assessed as fungal growth inhibition incubated for 48 hrs by broth microdilution method; type: functional
Candida albicans [5] = assay: Antifungal activity against FLC-resistant Candida albicans 10 assessed as fungal growth inhibition incubated for 48 hrs by broth microdilution method; type: functional
[6] = Cytotoxicity against HUVEC cells assessed as cell growth inhibition incubated for 24 hrs by CCK8 assay; type: toxicity, cell-based; settings: human
Candida albicans [7] = assay: Antifungal activity against FLC-resistant Candida albicans 17 assessed as fungal growth inhibition incubated for 48 hrs by broth microdilution method; type: functional
Candida albicans [8] = assay: Antifungal activity against Candida albicans SC5314 assessed as fungal growth inhibition incubated for 48 hrs in presence of Ca2+ by broth microdilution method; type: functional, organism-based
Candida albicans [9] = assay: Antifungal activity against FLC-resistant Candida albicans 646 assessed as fungal growth inhibition incubated for 48 hrs by broth microdilution method; type: functional
Candida albicans [10] = assay: Antifungal activity against FLC-resistant Candida albicans 538 assessed as fungal growth inhibition incubated for 48 hrs by broth microdilution method; type: functional
Candida albicans [11] = assay: Antifungal activity against FLC-resistant Candida albicans 605141 assessed as fungal growth inhibition incubated for 48 hrs by broth microdilution method; type: functional
Candida albicans [12] = assay: Antifungal activity against Candida albicans SC5314 infected in C57BL/6 mouse assessed as mean fungal burden at 2 mg/kg, ip measured after 46 hrs by plate count method (reference value: 6.890 log10CFU/ml); type: functional
Candida albicans [13] = assay: Antifungal activity against FLC-resistant Candida albicans 249 assessed as fungal growth inhibition incubated for 48 hrs by broth microdilution method; type: functional
Candida albicans [14] = assay: Antifungal activity against FLC-resistant Candida albicans 305 assessed as fungal growth inhibition incubated for 48 hrs by broth microdilution method; type: functional
Candida albicans [15] = assay: Antifungal activity against FLC-resistant Candida albicans 710554 assessed as fungal growth inhibition incubated for 48 hrs by broth microdilution method; type: functional
Candida albicans [16] = assay: Antifungal activity against FLC-resistant Candida albicans 819 assessed as fungal growth inhibition incubated for 48 hrs by broth microdilution method; type: functional
Candida albicans [17] = assay: Antifungal activity against FLC-resistant Candida albicans 512644 assessed as fungal growth inhibition incubated for 48 hrs by broth microdilution method; type: functional
Candida albicans [18] = assay: Antifungal activity against FLC-resistant Candida albicans 710513 assessed as fungal growth inhibition incubated for 48 hrs by broth microdilution method; type: functional
Candida albicans [19] = assay: Antifungal activity against FLC-resistant Candida albicans 8 assessed as fungal growth inhibition incubated for 48 hrs by broth microdilution method; type: functional
Cryptococcus neoformans [20] = assay: Antifungal activity against Cryptococcus neoformans BJ3 assessed as fungal growth inhibition incubated for 48 hrs by broth microdilution method; type: functional
Candida albicans [21] = assay: Antifungal activity against FLC-resistant Candida albicans 11 assessed as fungal growth inhibition incubated for 48 hrs by broth microdilution method; type: functional
Candida albicans [22] = assay: Antifungal activity against FLC-resistant Candida albicans 100 assessed as fungal growth inhibition incubated for 48 hrs by broth microdilution method; type: functional
Candida albicans [23] = assay: Antifungal activity against FLC-resistant Candida albicans 953 assessed as fungal growth inhibition incubated for 48 hrs by broth microdilution method; type: functional
Candida parapsilosis [24] = assay: Antifungal activity against Candida parapsilosis 106 assessed as fungal growth inhibition incubated for 48 hrs by broth microdilution method; type: functional; settings: Lodderomyces parapsilosis
Candida albicans [25] = assay: Antifungal activity against FLC-resistant Candida albicans 5740 assessed as fungal growth inhibition incubated for 48 hrs by broth microdilution method; type: functional
Candida albicans [26] = assay: Antifungal activity against FLC-resistant Candida albicans 512681 assessed as fungal growth inhibition incubated for 48 hrs by broth microdilution method; type: functional
Candida albicans [27] = assay: Antifungal activity against FLC-resistant Candida albicans 64548 assessed as fungal growth inhibition incubated for 48 hrs by broth microdilution method; type: functional
Candida albicans [28] = assay: Antifungal activity against FLC-resistant Candida albicans 385 assessed as fungal growth inhibition incubated for 48 hrs by broth microdilution method; type: functional
Cryptococcus neoformans [29] = assay: Antifungal activity against Cryptococcus neoformans HN15 assessed as fungal growth inhibition incubated for 48 hrs by broth microdilution method; type: functional
Candida albicans [30] = assay: Antifungal activity against FLC-resistant Candida albicans 304103 assessed as fungal growth inhibition incubated for 48 hrs by broth microdilution method; type: functional
Candida albicans [31] = assay: Antifungal activity against FLC-resistant Candida albicans 1221 assessed as fungal growth inhibition incubated for 48 hrs by broth microdilution method; type: functional
Candida albicans [32] = assay: Antifungal activity against FLC-resistant Candida albicans 14 assessed as fungal growth inhibition incubated for 48 hrs by broth microdilution method; type: functional
Candida albicans [33] = assay: Antifungal activity against Candida albicans SC5314 assessed as fungal growth inhibition incubated for 48 hrs in presence of Zn2+ by broth microdilution method; type: functional, organism-based
Candida albicans [34] = assay: Antifungal activity against FLC-resistant Candida albicans 379 assessed as fungal growth inhibition incubated for 48 hrs by broth microdilution method; type: functional
Candida albicans [35] = assay: Antifungal activity against Candida albicans SC5314 assessed as fungal growth inhibition incubated for 48 hrs by broth microdilution method; type: functional
Candida albicans [36] = assay: Antifungal activity against FLC-resistant Candida albicans 710452 assessed as fungal growth inhibition incubated for 48 hrs by broth microdilution method; type: functional
Candida albicans [37] = assay: Synergistic antifungal activity against FLC-resistant Candida albicans 64548 assessed as fractional inhibitory concentration index incubated for 48 hrs in presence of FLC by broth microdilution method; type: functional
[38] = Half life in Sprague-Dawley rat at 2 mg/kg, iv by LC-MS/MS analysis; type: ADME, organism-based; settings: in vivo
Candida albicans [39] = assay: Antifungal activity against FLC-resistant Candida albicans 710506 assessed as fungal growth inhibition incubated for 48 hrs by broth microdilution method; type: functional
[40] = Toxicity in C57BL/6 mouse infected with Candida albicans SC5314 assessed as mean survival time at 2 mg/kg, ip (reference value: 5 day); type: organism-based; settings: in vivo, 120 h
Candida albicans [41] = assay: Antifungal activity against FLC-resistant Candida albicans 395 assessed as fungal growth inhibition incubated for 48 hrs by broth microdilution method; type: functional
Candida albicans [42] = assay: Antifungal activity against FLC-resistant Candida albicans 540 assessed as fungal growth inhibition incubated for 48 hrs by broth microdilution method; type: functional
Candida albicans [43] = assay: Antifungal activity against FLC-resistant Candida albicans 241 assessed as fungal growth inhibition incubated for 48 hrs by broth microdilution method; type: functional
Candida albicans [44] = assay: Inhibition of mature biofilm formation of Candida albicans SC5314 upto 16 ug/ml incubated for 24 hrs by XTT assay; type: functional, organism-based; settings: dose <= 16.0 µg/ml
Candida albicans [45] = assay: Antifungal activity against FLC-resistant Candida albicans 710419 assessed as fungal growth inhibition incubated for 48 hrs by broth microdilution method; type: functional
Candida albicans [46] = assay: Antifungal activity against Candida albicans SC5314 assessed as fungal growth inhibition incubated for 48 hrs in presence of Mg2+ by broth microdilution method; type: functional, organism-based

CCN(CC)c1ccc(C(NC(=O)C(C)C)c2ccc3cccnc3c2O)cc1 (stereo not given)
MIC (Candida albicans [1]): 0.063 µg/mL | MIC (Nakaseomyces glabratus): 0.016 µg/mL (≈ 0.0409 µM) | growth inhibition (GI) (Candida albicans [2]): Active | MIC (Candida parapsilosis [3]): 0.125 µg/mL (≈ 0.319 µM) | MIC (Candida albicans [4]): 0.25 µg/mL (≈ 0.639 µM) | MIC (Candida albicans [5]): 0.125 µg/mL (≈ 0.319 µM) | IC50 at 24 h [6]: 67.8 µg/mL (≈ 173 µM) | MIC (Candida albicans [7]): 0.5 µg/mL (≈ 1.28 µM) | growth inhibition (GI) (Candida albicans [8]): Active | MIC (Candida albicans [9]): 0.125 µg/mL (≈ 0.319 µM) | MIC (Candida albicans [10]): 0.25 µg/mL (≈ 0.639 µM) | MIC (Candida albicans [11]): 0.5 µg/mL (≈ 1.28 µM) | Activity (Candida albicans [12]): 6.283 log10CFU/g | MIC (Candida albicans [13]): 0.25 µg/mL (≈ 0.639 µM) | MIC (Candida albicans [14]): 0.5 µg/mL (≈ 1.28 µM) | MIC (Candida albicans [15]): 0.5 µg/mL (≈ 1.28 µM) | MIC (Candida albicans [16]): 0.125 µg/mL (≈ 0.319 µM) | MIC (Candida albicans [17]): 0.25 µg/mL (≈ 0.639 µM) | MIC (Candida albicans [18]): 0.5 µg/mL (≈ 1.28 µM) | MIC (Candida albicans [19]): 0.125 µg/mL (≈ 0.319 µM) | MIC (Cryptococcus neoformans [20]): 0.063 µg/mL (≈ 0.161 µM) | MIC (Candida albicans [21]): 0.25 µg/mL (≈ 0.639 µM) | MIC (Candida albicans [22]): 0.125 µg/mL (≈ 0.319 µM) | MIC (Candida albicans [23]): 0.5 µg/mL (≈ 1.28 µM) | MIC (Candida parapsilosis [24]): 0.063 µg/mL (≈ 0.161 µM) | MIC (Candida albicans [25]): 0.063 µg/mL (≈ 0.161 µM) | MIC (Candida albicans [26]): 0.25 µg/mL (≈ 0.639 µM) | MIC (Candida albicans [27]): 0.5 µg/mL (≈ 1.28 µM) | MIC (Candida albicans [28]): 0.125 µg/mL (≈ 0.319 µM) | MIC (Cryptococcus neoformans [29]): 0.063 µg/mL (≈ 0.161 µM) | MIC (Candida albicans [30]): 0.25 µg/mL (≈ 0.639 µM) | MIC (Candida albicans [31]): 0.25 µg/mL (≈ 0.639 µM) | MIC (Candida albicans [32]): 0.125 µg/mL (≈ 0.319 µM) | growth inhibition (GI) (Candida albicans [33]): Active | MIC (Candida albicans [34]): 0.25 µg/mL (≈ 0.639 µM) | MIC (Candida albicans [35]): 0.063 µg/mL (≈ 0.161 µM) | MIC (Candida albicans [36]): 0.125 µg/mL (≈ 0.319 µM) | fractional inhibitory concentration index (FICI) (Candida albicans [37]): 0.063 | half-life [38]: 5.28 h | MIC (Candida albicans [39]): 1 µg/mL (≈ 2.55 µM) | Survival [40]: 6.5 days | MIC (Candida albicans [41]): 0.125 µg/mL (≈ 0.319 µM) | MIC (Candida albicans [42]): 0.25 µg/mL (≈ 0.639 µM) | MIC (Candida albicans [43]): 0.5 µg/mL (≈ 1.28 µM) | inhibition (Candida albicans [44]): inactive | MIC (Candida albicans [45]): 0.5 µg/mL (≈ 1.28 µM) | growth inhibition (GI) (Candida albicans [46]): Active

OC(Cn1cncn1)(Cn1cncn1)c1ccc(F)cc1F [FLUCONAZOLE]
MIC (Nakaseomyces glabratus): 0.125 µg/mL (≈ 0.408 µM) | MIC (Candida parapsilosis [3]): > 64 µg/mL | MIC (Candida albicans [4]): 32 µg/mL (≈ 104 µM) | MIC (Candida albicans [5]): 32 µg/mL (≈ 104 µM) | IC50 at 24 h [6]: 9.18 µg/mL (≈ 30 µM) | MIC (Candida albicans [7]): 32 µg/mL (≈ 104 µM) | MIC (Candida albicans [9]): > 64 µg/mL | MIC (Candida albicans [10]): > 64 µg/mL | MIC (Candida albicans [11]): > 64 µg/mL | MIC (Candida albicans [13]): 32 µg/mL (≈ 104 µM) | MIC (Candida albicans [14]): > 64 µg/mL | MIC (Candida albicans [15]): > 64 µg/mL | MIC (Candida albicans [16]): 32 µg/mL (≈ 104 µM) | MIC (Candida albicans [17]): > 64 µg/mL | MIC (Candida albicans [18]): > 64 µg/mL | MIC (Candida albicans [19]): 16 µg/mL (≈ 52.2 µM) | MIC (Cryptococcus neoformans [20]): 16 µg/mL (≈ 52.2 µM) | MIC (Candida albicans [21]): 32 µg/mL (≈ 104 µM) | MIC (Candida albicans [22]): 16 µg/mL (≈ 52.2 µM) | MIC (Candida albicans [23]): > 64 µg/mL | MIC (Candida parapsilosis [24]): 0.5 µg/mL (≈ 1.63 µM) | MIC (Candida albicans [25]): 32 µg/mL (≈ 104 µM) | MIC (Candida albicans [26]): > 64 µg/mL | MIC (Candida albicans [27]): > 64 µg/mL | MIC (Candida albicans [28]): > 64 µg/mL | MIC (Cryptococcus neoformans [29]): 4 µg/mL (≈ 13.1 µM) | MIC (Candida albicans [30]): 32 µg/mL (≈ 104 µM) | MIC (Candida albicans [31]): > 64 µg/mL | MIC (Candida albicans [32]): 32 µg/mL (≈ 104 µM) | MIC (Candida albicans [34]): > 64 µg/mL | MIC (Candida albicans [35]): 0.5 µg/mL (≈ 1.63 µM) | MIC (Candida albicans [36]): > 64 µg/mL | MIC (Candida albicans [39]): > 64 µg/mL | MIC (Candida albicans [41]): 32 µg/mL (≈ 104 µM) | MIC (Candida albicans [42]): > 64 µg/mL | MIC (Candida albicans [43]): > 64 µg/mL | inhibition (Candida albicans [44]): inactive | MIC (Candida albicans [45]): > 64 µg/mL
